Results from ChEMBL document CHEMBL2434943, “Elaboration of thorough simplified vinca alkaloids as antimitotic agents based on pharmacophore similarity” (Eur J Med Chem, 2013).
Active and inactive are the calls of the source. No cut-off for these calls is given here.

Legend:
[1] = Cytotoxicity against KM mouse splenic lymphocytes assessed as growth inhibition after 72 hrs by MTT assay; settings: Splenic lymphocyte
[2] = tested on: MCF7; test: Cytotoxicity against human MCF7 cells assessed as growth inhibition after 72 hrs by MTT assay; assay type: functional, cell-based; settings: MCF7, 72 h
[3] = tested on: HepG2; test: Antimitotic activity in human HepG2 cells assessed as disruption of microtubule network at 5 uM by DAPI staining-based laser scanning confocal microscopic analysis; assay type: functional, cell-based; settings: TDE = time-dependent effect
[4] = tested on: MCF7; test: Cell cycle arrest in human MCF7 cells assessed as accumulation at G0/G1 phase at 1 uM after 36 hrs by propidium iodide staining-based flow cytometric analysis (reference value: 67.3%); assay type: functional
[5] = tested on: HepG2; test: Cytotoxicity against human HepG2 cells assessed as growth inhibition after 72 hrs by MTT assay; assay type: functional, cell-based; settings: HepG2, 72 h
[6] = tested on: HepG2; test: Cell cycle arrest in human HepG2 cells assessed as accumulation at G2/M phase at 5 uM after 48 hrs by propidium iodide staining-based flow cytometric analysis (reference value: 22.4%); assay type: functional
[7] = tested on: MCF7; test: Cell cycle arrest in human MCF7 cells assessed as accumulation at G2/M phase at 1 uM after 36 hrs by propidium iodide staining-based flow cytometric analysis (reference value: 19%); assay type: functional
[8] = tested on: HepG2; test: Cell cycle arrest in human HepG2 cells assessed as accumulation at G2/M phase at 3 uM after 48 hrs by propidium iodide staining-based flow cytometric analysis (reference value: 22.4%); assay type: functional
[9] = tested on: MCF7; test: Cell cycle arrest in human MCF7 cells assessed as accumulation at subG1 phase at 1 uM after 36 hrs by propidium iodide staining-based flow cytometric analysis (reference value: 1.2%); assay type: functional
[10] = tested on: MCF7; test: Cell cycle arrest in human MCF7 cells assessed as accumulation at subG1 phase at 3 uM after 36 hrs by propidium iodide staining-based flow cytometric analysis (reference value: 1.2%); assay type: functional
[11] = tested on: HepG2; test: Cell cycle arrest in human HepG2 cells assessed as accumulation at G0/G1 phase at 5 uM after 48 hrs by propidium iodide staining-based flow cytometric analysis (reference value: 65.9%); assay type: functional
[12] = tested on: MCF7; test: Cell cycle arrest in human MCF7 cells assessed as accumulation at G2/M phase at 3 uM after 36 hrs by propidium iodide staining-based flow cytometric analysis (reference value: 19%); assay type: functional
[13] = tested on: MCF7; test: Cell cycle arrest in human MCF7 cells assessed as accumulation at S phase at 1 uM after 36 hrs by propidium iodide staining-based flow cytometric analysis (reference value: 12.5%); assay type: functional
[14] = tested on: MCF7; test: Cell cycle arrest in human MCF7 cells assessed as accumulation at subG1 phase at 5 uM after 36 hrs by propidium iodide staining-based flow cytometric analysis (reference value: 1.2%); assay type: functional
[15] = tested on: MCF7; test: Cell cycle arrest in human MCF7 cells assessed as accumulation at G0/G1 phase at 5 uM after 36 hrs by propidium iodide staining-based flow cytometric analysis (reference value: 67.3%); assay type: functional
[16] = tested on: MCF7; test: Cell cycle arrest in human MCF7 cells assessed as accumulation at S phase at 3 uM after 36 hrs by propidium iodide staining-based flow cytometric analysis (reference value: 12.5%); assay type: functional
[17] = tested on: HepG2; test: Cell cycle arrest in human HepG2 cells assessed as accumulation at S phase at 5 uM after 48 hrs by propidium iodide staining-based flow cytometric analysis (reference value: 10.5%); assay type: functional
[18] = tested on: HepG2; test: Antimitotic activity in human HepG2 cells assessed as cell morphological changes at 5 uM after 3 to 12 hrs by DAPI staining-based laser scanning confocal microscopic analysis; assay type: functional
[19] = tested on: HepG2; test: Cytotoxicity against adriamycin-resistant human HepG2 cells assessed as growth inhibition after 72 hrs by MTT assay; assay type: functional, cell-based; settings: HepG2, 72 h
[20] = tested on: HepG2; test: Cell cycle arrest in human HepG2 cells assessed as accumulation at G2/M phase at 10 uM after 48 hrs by propidium iodide staining-based flow cytometric analysis (reference value: 22.4%); assay type: functional
[21] = molecular target: Tubulin (Homo sapiens) (UniProt P68371+Q9H4B7+P0DPH7+P68366+Q13509+Q71U36+P04350+Q3ZCM7+P07437+P68363+Q9BQE3+Q6PEY2+Q13885+Q9BVA1+Q9BUF5); test: Inhibition of tubulin polymerization (unknown origin) at 3 to 10 uM after 90 mins; assay type: protein-complex assay
[22] = tested on: HepG2; test: Cell cycle arrest in human HepG2 cells assessed as accumulation at subG1 phase at 3 uM after 48 hrs by propidium iodide staining-based flow cytometric analysis (reference value: 1.2%); assay type: functional
[23] = tested on: HepG2; test: Cell cycle arrest in human HepG2 cells assessed as accumulation at G0/G1 phase at 10 uM after 48 hrs by propidium iodide staining-based flow cytometric analysis (reference value: 65.9%); assay type: functional
[24] = tested on: HepG2; test: Cell cycle arrest in human HepG2 cells assessed as accumulation at G0/G1 phase at 3 uM after 48 hrs by propidium iodide staining-based flow cytometric analysis (reference value: 65.9%); assay type: functional
[25] = tested on: HepG2; test: Cell cycle arrest in human HepG2 cells assessed as accumulation at S phase at 10 uM after 48 hrs by propidium iodide staining-based flow cytometric analysis (reference value: 10.5%); assay type: functional
[26] = tested on: HepG2; test: Cell cycle arrest in human HepG2 cells assessed as accumulation at S phase at 3 uM after 48 hrs by propidium iodide staining-based flow cytometric analysis (reference value: 10.5%); assay type: functional
[27] = tested on: HepG2; test: Cell cycle arrest in human HepG2 cells assessed as accumulation at subG1 phase at 10 uM after 48 hrs by propidium iodide staining-based flow cytometric analysis (reference value: 1.2%); assay type: functional
[28] = tested on: MCF7; test: Cell cycle arrest in human MCF7 cells assessed as accumulation at S phase at 5 uM after 36 hrs by propidium iodide staining-based flow cytometric analysis (reference value: 12.5%); assay type: functional
[29] = tested on: MDA-MB-231; test: Cytotoxicity against human MDA-MB-231 cells assessed as growth inhibition after 72 hrs by MTT assay; assay type: functional, cell-based; settings: MDA-MB-231, 72 h
[30] = tested on: MCF7; test: Cell cycle arrest in human MCF7 cells assessed as accumulation at G2/M phase at 5 uM after 36 hrs by propidium iodide staining-based flow cytometric analysis (reference value: 19%); assay type: functional
[31] = tested on: HepG2; test: Cell cycle arrest in human HepG2 cells assessed as accumulation at subG1 phase at 5 uM after 48 hrs by propidium iodide staining-based flow cytometric analysis (reference value: 1.2%); assay type: functional
[32] = tested on: K562; test: Cytotoxicity against human K562 cells assessed as growth inhibition after 72 hrs by MTT assay; assay type: functional, cell-based; settings: K562, 72 h
[33] = tested on: MCF7; test: Cell cycle arrest in human MCF7 cells assessed as accumulation at G0/G1 phase at 3 uM after 36 hrs by propidium iodide staining-based flow cytometric analysis (reference value: 67.3%); assay type: functional

CC1(C)C(/C=C/c2cccc([N+](=O)[O-])c2)=Nc2ccccc21
IC50 [1]: 18.8 µM | IC50 [2]: 0.89 µM | Activity [3]: tde | Activity [4]: 56.8% | IC50 [5]: 5.04 µM | Activity [6]: 71.3% | Activity [7]: 28% | Activity [8]: 37.6% | Activity [9]: 1.2% | Activity [10]: 9.7% | Activity [11]: 15.3% | Activity [12]: 39.7% | Activity [13]: 14% | Activity [14]: 21.4% | Activity [15]: 19.6% | Activity [16]: 10% | Activity [17]: 9.9% | Activity [18]: Active | IC50 [19]: 2.27 µM | Activity [20]: 52.1% | inhibition [21]: Active | Activity [22]: 2.9% | Activity [23]: 36.8% | Activity [24]: 51.3% | Activity [25]: 8.6% | Activity [26]: 8.2% | Activity [27]: 2.5% | Activity [28]: 12.3% | IC50 [29]: 1.87 µM | Activity [30]: 46.7% | Activity [31]: 3.5% | IC50 [32]: 4.38 µM | Activity [33]: 40.6%
